# Results reported in PMC7946228, “Discovery of novel candidates for anti-liposarcoma therapies by medium-scale high-throughput drug screening” (PLoS ONE, 2021).
# Numbered stars: 1 amine (or outer) side, 2 acyl side, 3 side chain; on linkers, the order of the positions; unused ones are H or OH. Bridge positions count the residues as written; N and C are the ends. Square brackets hold non-standard residues; d marks the D form. Peptide text beside a SMILES is read from it. I, II: the chains in the order shown. Actinocin(9to1) = Cc1c2oc3c(C)ccc(C(=O)[*:1])c3nc-2c(C(=O)[*:2])c(N)c1=O; NMeV = CN[C@H](C(=O)O)C(C)C; Sar = CNCC(=O)O
# Tested on: 13 liposarcoma cell lines
# Assay: High-throughput drug screen, ATP viability 72h
# Assay type: cell-based, human
# Conditions: five concentrations 1 nM to 10 μM, combined viability (AUC)
# Method: 349 compounds from anti-cancer Selleck Chemical library were pre-aliquoted at five concentrations, increasing in 10-fold steps from 1 nM to 10 μM, in 384-well plates using an Echo Liquid Handler. Each plate also contained positive (benzethonium chloride, BzCl) and negative (DMSO only) controls. Additional drugs were added manually to the same plates at the same concentration range. Cells were seeded directly into the plates containing the drugs. After 72h viability was assessed through levels of ATP, with Cell Titer Glow assay (Promega, Wisconsin, United States) and luminescence quantified using a […]. Data from drug screens were analyzed with R version 3.4.0 (R_Core_Team, 2017) normalized to median positive (BzCl) and median negative (DMSO) controls using formula: (drug-BzCl)/(DMSO–BzCl), with total viability calculated as the area under the curve over all five drug concentrations, adjusted using qualitatively constrained quantile smoothing splines, R package ‘cobs’ version 1.3–3 [22]. The raw values of positive (BzCl) and median negative (DMSO) controls on each assay plate were aggregated and used to calculate z’-factors, as a measure of assay performance and data quality, with a z’-factor > 0.5 representing acceptable data. For two cases where the z’-factor was below 0.5, strictly standardized mean difference (SSMD) was additionally calculated, giving the population value (β) of SSMD -4 and -5, respectively, indicating good quality. Data visualization was done in R using ‘ComplexHeatmaps’ package version 1.20.0 [24]. The same assay was also used when assessing viability of non-tumor cells and tumor explants.
# Thirteen liposarcoma cell lines representing dedifferentiated, well-differentiated, pleomorphic and unspecified subtype liposarcomas were grown in 384-well format in the presence one of the 353 compounds, each at five 10-fold increasing concentrations (from 1 nM to 10 μM) for 72h, after which their viability was scored by measuring ATP levels. The viability was normalized to positive and negative controls and was calculated as sum of viabilities obtained with all the five used concentrations. That means if, e.g., the compound was killing cells at all the tested concentrations, the viability value would be 0, and if the compound was not killing cells at any tested concentrations, the value would be […]. If the compound was reducing the viability to 50% at 100 nM, and to 0% at 1 and 10 μM, the total viability would be calculated as 2 (see scheme on the top of Fig 1A). Within the tested concentration range, the majority of the drugs had very little effect on viability regardless of the target or pathway (Figs 1A and S1). The drug screen included 28 chemotherapeutic drugs currently in clinical use in Norway for the treatment of sarcoma.
row,Structure (SMILES),effect on viability in the drug screen
1,CC(C)C[C@H](NC(=O)[C@H](Cc1ccccc1)NC(=O)c1cnccn1)B(O)O [Bortezomib],top candidates from the screen
2,"Cc1c2oc3c(C)ccc(C(=O)N[C@@H]4C(=O)N[C@H](C(C)C)C(=O)N5CCC[C@H]5C(=O)N(C)CC(=O)N(C)[C@@H](C(C)C)C(=O)O[C@@H]4C)c3nc-2c(C(=O)N[C@@H]2C(=O)N[C@H](C(C)C)C(=O)N3CCC[C@H]3C(=O)N(C)CC(=O)N(C)[C@@H](C(C)C)C(=O)O[C@@H]2C)c(N)c1=O [actinomycin D] (I: T[dV]P[Sar][NMeV] / II: T[dV]P[Sar][NMeV]; ester I:1-I:C, II:1-II:C; linker I:N-II:N via Actinocin(9to1))",significant impact on viability
3,CC(=O)O[C@@]12CO[C@@H]1C[C@H](O)[C@@]1(C)C(=O)[C@H](O)C3=C(C)[C@@H](OC(=O)[C@H](O)[C@@H](NC(=O)OC(C)(C)C)c4ccccc4)C[C@@](O)([C@@H](OC(=O)c4ccccc4)[C@H]21)C3(C)C [docetaxel],significant impact on viability
4,Nc1ccn([C@@H]2O[C@H](CO)[C@@H](O)C2(F)F)c(=O)n1 [gemcitabine],significant impact on viability
5,Cc1ccc(C(=O)N(CCCN)[C@@H](c2nc3cc(Cl)ccc3c(=O)n2Cc2ccccc2)C(C)C)cc1 [ispinesib],top candidates from the screen
6,CC(=O)O[C@H]1C(=O)[C@@]2(C)[C@H]([C@H](OC(=O)c3ccccc3)[C@]3(O)C[C@H](OC(=O)[C@H](O)[C@@H](NC(=O)c4ccccc4)c4ccccc4)C(C)=C1C3(C)C)[C@]1(OC(C)=O)CO[C@@H]1C[C@@H]2O [paclitaxel],significant impact on viability
7,CC[C@]1(O)C[C@H]2CN(CCc3c([nH]c4ccccc34)[C@@](C(=O)OC)(c3cc4c(cc3OC)N(C=O)[C@H]3[C@@](O)(C(=O)OC)[C@H](OC(C)=O)[C@]5(CC)C=CCN6CC[C@]43[C@@H]65)C2)C1 [vincristine],significant impact on viability
